# According to patent publication US20240277712A1, “TREATMENT AND PREVENTION OF DEVELOPMENTAL DISORDERS AND MENTAL DISEASES” (KYUSHU UNIVERSITY, NATIONAL UNIVERSITY CORPORATION, priority 2020, published 2024):
# “Also recorded” adds a separate entry of the source. Structures can show the parent of a compound that is named as a salt.
# Experiments:
# MECP2-deficient neurons [1] = experiment: Quantification of co-localized synaptic puncta (SYN1/PSD-95) on iPS cell-derived neurons; assay type: cell-based, human; conditions: vs neurons treated without reverse transcriptase inhibitors, NVP 400 nM
# Protocol: Specifically, differentiated nervous system cells derived from normal human iPS cells and iPS cells obtained from patients suffered from Rett syndrome (hereinafter referred to as MECP2-deficient or MECP2-KO because the MECP2 gene was inactivated) were cultured and differentiated into cortical neurons. For differentiation into neurospheres (neural stem cell clusters), NPCs were dissociated from the plate using StemPro Accutase (Life Technologies), and 3-5 million cells were then cultured in suspension on 6-well plates in a shaker incubator at 95 r.p.m. at 37° C. for 48 hours in neural culture (NG) media (DMEM/F12, 1% Glutamax (Life Technologies), 1% N2 Neuroplex (Gemini Bio-products), 2% Gem21 NeuroPlex (Gemini Bio-products), 1% penicillin-streptomycin) supplemented with bFGF (basic Fibroblast Growth Factor, R&D Systems). […]
# Quantification of synaptic spots was performed as follows.
# Five- to six-week-old neurons were fixed and stained for the following markers: SYN1, postsynaptic density protein 95 (PSD-95), and dendritic marker (MAP2). A fluorescence microscope (Z1 Axio Observer Apotome Zeiss) was used to image the slides by compiling Z stack images taken from changing focus distances. Co-localized SYN1 (presynaptic) and PSD-95 (postsynaptic) were quantified using the compiled Z stack image. […]
# [2] = system: MECP2-deficient spheroids; experiment: Multi-electrode array (MEA) neural network activity of spheroids; assay type: cell-based, human; conditions: MEA after 4 weeks, chronic treatment
# Protocol: Next, 3TC and d4T were added to the obtained differentiated neural cell culture. The reverse-transcriptase inhibitors for cultured cells were prepared for as follows: Lamivudine (3TC, Sigma-Aldrich) was prepared in dimethyl sulfoxide (DMSO, Sigma Aldrich) and the preparation was added to media so that the final concentration of 3TC was adjusted into 10 μM. Stavudine (d4T, Sigma-Aldrich) was suspended in water and a final concentration of 1 μM d4T was used in combination with 3TC. […] Control cells (CTRL) contained 10 pjM DMSO as a vehicle control.
# The NPCs used to generate spheroids were chronically treated under their respective conditions and plated on multi-electrode array (MEA) planes to measure neural network activity. MEA plates were recorded weekly and analysis of spontaneous neural activity was performed after 4 weeks.
# Multi-electrode array (MEA) was performed as follows.
# Twelve-well MEA plates (Axion Biosystems) were coated with 100 μg/mL poly-L-ornithine (Sigma-Aldrich) and 5 μg/mL laminin (Life Technologies). Neurospheres generated from NPCs were placed in the center of the MEA wells and the electrodes were fully covered. Neurospheres were plated in NG media supplemented with 1% FBS. […] Media was changed twice a week and recordings were measured one day after the media was changed. […]
# MECP2-deficient neurons [3] = experiment: Morphological analysis of iPS cell-derived neurons (Neurolucida tracing, Scholl analysis); assay type: cell-based, human; conditions: 3TC 10 μM in combination with d4T 1 μM, NVP 400 nM
# Protocol: Specifically, differentiated nervous system cells derived from normal human iPS cells and iPS cells obtained from patients suffered from Rett syndrome (hereinafter referred to as MECP2-deficient or MECP2-KO because the MECP2 gene was inactivated) were cultured and differentiated into cortical neurons. […] For neuronal maturation, the cells were kept in the same media but the growth factors were withdrawn.
# The differentiated nervous system cells were maintained for 8 weeks after FGF withdraw.
# (§2) Next, 3TC and d4T were added to the obtained differentiated neural cell culture. The reverse-transcriptase inhibitors for cultured cells were prepared for as follows: Lamivudine (3TC, Sigma-Aldrich) was prepared in dimethyl sulfoxide (DMSO, Sigma Aldrich) and the preparation was added to media so that the final concentration of 3TC was adjusted into 10 μM. […]
# Cultured NPCs were transduced with a lentivirus backbone containing Synapsin 1 (SYN) promoter upstream of an EGFP reporter (Nageshappa et al., Mol Psychiatry 21, 178-188 (2016)). […] 11 (MBF Bioscience, Williston, VT) was used to quantify the morphology of the neurons and then to obtain the sum of length of all neurites and dendrites per traced neuron. […] Neuronal complexity was determined by recording the number of intersections within each ring.
# [4] = molecular target: HIV reverse transcriptase (Human immunodeficiency virus type 1 group M subtype B, UniProt P04585); conditions: cited from earlier work
# [5] = system: MECP2-deficient organoids; experiment: Measurement of cortical organoid diameter; assay type: cell-based, human; conditions: after 56 days of differentiation
# Protocol: The cultured iPS cells were dissociated from the plate using a 1:1 Dulbecco's phosphate-buffered saline (DPBS, Fisher Scientific) and StemPro Accutase solution, transferred to 6-well plates, and kept in suspension. Neural induction media consisted of DMEM/F12, 1% Glutamax, 1% N2 Neuroplex, 1% non-essential amino acids (Gibco), 1% penicillin-streptomycin, 1 μM Dorsomorphin (R&D Systems), and 10 μM SB431542 (SB, Stemgent) Neural proliferation media consisted of Neurobasal media (Life Technologies), 2% Gem21 Neuroplex, 1% non-essential amino acids, 1% Glutamax, 20 ng/mL epidermal growth factor (EGF, Peprotech), and 20 ng/mL bFGF. For neuronal maturation, the cells were kept in the same media but the growth factors were withdrawn. Organoid results are combined from four separate batches of differentiation.
# as §2
# Cortical organoids were imaged on an Evos FL Imagine System (ThermoFisher) at 4× magnification. The images were uploaded to Image J and the diameter of each organoid was determined by the program's length measurement function.
# L1 reverse transcriptase = L1 reverse transcriptase (Homo sapiens, UniProt O00370); conditions: Dai et al., BMC Biochemistry 2011, 12:18; cited from earlier work
# Sequence of L1 reverse transcriptase (O00370 whole entry, looked up): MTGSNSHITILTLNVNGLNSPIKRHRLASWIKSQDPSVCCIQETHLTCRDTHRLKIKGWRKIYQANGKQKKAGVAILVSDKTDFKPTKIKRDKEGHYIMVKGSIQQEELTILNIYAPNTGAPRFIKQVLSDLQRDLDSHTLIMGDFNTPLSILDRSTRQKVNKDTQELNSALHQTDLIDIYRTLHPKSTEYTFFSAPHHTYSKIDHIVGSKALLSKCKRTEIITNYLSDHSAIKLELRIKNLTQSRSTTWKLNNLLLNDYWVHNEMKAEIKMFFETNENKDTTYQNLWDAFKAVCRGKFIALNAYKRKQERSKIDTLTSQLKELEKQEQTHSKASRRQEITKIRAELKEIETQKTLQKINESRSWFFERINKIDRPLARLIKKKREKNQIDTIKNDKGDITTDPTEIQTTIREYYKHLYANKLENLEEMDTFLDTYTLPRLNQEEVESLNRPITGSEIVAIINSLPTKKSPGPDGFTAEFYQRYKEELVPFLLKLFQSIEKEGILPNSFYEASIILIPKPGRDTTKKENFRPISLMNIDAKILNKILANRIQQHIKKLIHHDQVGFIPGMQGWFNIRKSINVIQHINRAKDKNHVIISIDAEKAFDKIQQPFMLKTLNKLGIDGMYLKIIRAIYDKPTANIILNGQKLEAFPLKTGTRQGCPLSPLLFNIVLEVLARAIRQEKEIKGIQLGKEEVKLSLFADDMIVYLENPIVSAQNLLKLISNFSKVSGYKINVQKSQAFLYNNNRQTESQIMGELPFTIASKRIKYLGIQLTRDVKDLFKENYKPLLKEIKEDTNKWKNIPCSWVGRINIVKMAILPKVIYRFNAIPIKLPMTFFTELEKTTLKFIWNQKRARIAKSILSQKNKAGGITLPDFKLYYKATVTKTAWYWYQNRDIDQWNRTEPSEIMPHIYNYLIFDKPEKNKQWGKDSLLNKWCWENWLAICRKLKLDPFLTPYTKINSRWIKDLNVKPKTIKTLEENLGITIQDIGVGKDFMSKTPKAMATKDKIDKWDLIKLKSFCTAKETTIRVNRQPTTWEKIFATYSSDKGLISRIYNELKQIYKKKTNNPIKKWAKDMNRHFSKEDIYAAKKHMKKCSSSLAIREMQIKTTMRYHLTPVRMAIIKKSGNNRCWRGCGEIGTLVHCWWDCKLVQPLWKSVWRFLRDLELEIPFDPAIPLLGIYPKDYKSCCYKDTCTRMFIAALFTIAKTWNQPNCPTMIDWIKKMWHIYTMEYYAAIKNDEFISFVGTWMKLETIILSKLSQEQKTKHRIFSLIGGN
# L1 = experiment: L1-EGFP vector assay in HEK293; assay type: cell-based, human; conditions: HEK293 with L1-EGFP vector, 20 μM, four days
# Protocol: The reverse transcriptase inhibitors 3TC, d4T and Tenofovir disoproxil Fumarate (TDF), QA-2704, Combi-Blocks) were added to cell lines derived from human fetal kidney cells (HEK293) to a final concentration of 20 μM, and the cells were introduced with a vector (L1-EGFP, Macia et al. Genome Res 27, 335-348 (2017)) in which EGFP protein was expressed in only cells with activated L1. Four days after incubating, immunostaining was performed using antibodies against GFP and Hoechest, which stains nuclei, and images were taken using a fluorescence microscope (Leica AF600) with a 10× objective.
# MeCP2-KO mice [6] = experiment: Survival of MeCP2-KO mice; assay type: in vivo; conditions: 2 mg/ml in drinking water starting at week 4, vs vehicle
# Protocol: (§1) MeCP2-KO mice (C57BL/6 background) were obtained from Mutant Mouse Resource & Research Centers (MMRRC) (Chen, RZ, Akbarian S, Tudor M and Jaenisch R. Nat Genet 27, 327-331 (2001)). All aspects of animal care and treatment were carried out according to the guidelines of the Experimental Animal Care Committee of Kyushu University.
# Mice were maintained in a 12-hour light/dark cycle with free access to food and water. MeCP2-KO mice were divided into three groups of animals, each of which was administered with 3TC (QA-4615, Combi-blocks), d4T (d3580, Tokyo Chemical Industry Co., Ltd.) and vehicle. The mice were orally administered with 3TC (2 mg/ml), d4T (2 mg/ml) and vehicle in drinking water, respectively, starting at week 4. As a control, the vehicle-treated MeCP2-KO mice were used. All mice were observed daily.
# Next, the survival rate of the mice in each group (vehicle, 20 mice; 3TC, 13 mice; d4T, 13 mice) was examined.
# MeCP2-KO mice [7] = experiment: Neurological symptom scoring in MeCP2-KO mice; assay type: in vivo; conditions: 2 mg/ml in drinking water starting at week 4, observed up to 10 weeks, vs vehicle
# Protocol: Treatment with reverse transcription inhibitors was performed as follows.
# as §1
# Mice were maintained in a 12-hour light/dark cycle with free access to food and water. MeCP2-KO mice were divided into three groups of animals, each of which was administered with 3TC (QA-4615, Combi-blocks), d4T (d3580, Tokyo Chemical Industry Co., Ltd.) and vehicle. […]
# Neurological symptoms of the mice were scored as described in Guy J, Gan J, Selfridge J, Cobb S and Bird A. Science 315, 1143-1147 (2007). In brief, the mice bred as described above were scored blind to genotype and treatment status, focusing on the six symptoms of mobility, gait, hindlimb clasping, tremor, breathing, and general condition. Each of the six symptoms was scored from 0 to 2:0 corresponds to symptom's being absent or the same as in the wild-type, 1 corresponds to symptom's being present, and 2 corresponds to severe symptom.
# Six neurological symptoms scored in each of the three groups of the mice (vehicle, 15 mice; 3TC, 10 mice; d4T, 10 mice) were summed, and observed and recorded for up to 10 weeks.
structure (smiles),measurement,setting,value
"Cc1ccnc2c1NC(=O)c1cccnc1N2C1CC1 [NVP, Nevirapine]",co-localized puncta (synapse formation),MECP2-deficient neurons [1],not seen
same,weighted mean firing rate,[2],significantly decreased
same,cell body area,MECP2-deficient neurons [3],this rescue was not seen
same,number of branch points,MECP2-deficient neurons [3],this rescue was not seen
same,inhibitory activity for HIV reverse transcriptase,[4],has an HIV reverse transcriptase inhibitory activity
same,cortical organoid diameter,[5],not seen
same,inhibitory activity for L1 reverse transcriptase,L1 reverse transcriptase,does not have any inhibitory activity; also recorded: not to have any L1 reverse transcriptase inhibitory activity
"CC(C)OC(=O)OCOP(=O)(CO[C@H](C)Cn1cnc2c(N)ncnc21)OCOC(=O)OC(C)C [TDF, Tenofovir disoproxil Fumarate]",percentage of EGFP-positive cells,L1,decrease
"O=C1Nc2ccc(Cl)cc2[C@@](C#CC2CC2)(C(F)(F)F)O1 [efavirenz, Efavirenz]",inhibitory activity for L1 reverse transcriptase,L1 reverse transcriptase,have an inhibitory activity
CC(C)Nc1cccnc1N1CCN(C(=O)c2cc3cc(NS(C)(=O)=O)ccc3[nH]2)CC1 [delavirdine],inhibitory activity for L1 reverse transcriptase,L1 reverse transcriptase,have an inhibitory activity
"Cc1cn([C@H]2C=C[C@@H](CO)O2)c(=O)[nH]c1=O [d4T, stavudine]",survival rate,MeCP2-KO mice [6],Significant life extensions
same,Rett symptoms (summed score of six neurological symptoms),MeCP2-KO mice [7],Significant reductions
same,percentage of EGFP-positive cells,L1,decrease
